# Test results: US8710089B2, “Triazole derivatives as ghrelin analogue ligands of growth hormone secretagogue receptors” (Zentaris GmbH, priority 2005, dated 2014)
# Molecular target: T1, human GHS-R 1a (Homo sapiens, UniProt Q92847)
# T1 construct: expressed in transfected cells; host or cells: LLC PK-1 porcine renal epithelial cells (ECACC No. 86121112), isolated plasma membranes
# Assay: GHS-R 1a receptor-ligand binding assay (membrane preparations from transfected LLC PK-1 cells)
# Conditions: displacement of 125I-His9-ghrelin (60 pM); membranes of LLC PK-1 cells transfected with human GHS-R 1a; mean of at least two independent experiments in triplicates
# Experimental: (J. Med. […] Med. Chem. 2003, 46: 1191-1203), were incubated in homogenization buffer HB [50 mM Tris (pH 7.3), 5 mM MgCl2, 2.5 mM EDTA, and 30 μg/mL bacitracin (Sigma)] for 60 min at 25° C. (steady-state conditions) with 60 pM ^125I-[…]-ghrelin (Amersham) in the presence or absence of competing compounds (compounds of the invention). […] Nonspecific binding was defined using an excess (10^-6 M) of ghrelin. The binding reaction was stopped by addition of 4 mL of ice-cold HB followed by rapid filtration over Whatman GP/C filters presoaked with 0.5% polyethyleneimine to prevent excessive binding of radioligand to the filters. […] IC50 values given are the mean of at least two independent experiments performed in triplicates.
# T1 sequence (Q92847 whole entry): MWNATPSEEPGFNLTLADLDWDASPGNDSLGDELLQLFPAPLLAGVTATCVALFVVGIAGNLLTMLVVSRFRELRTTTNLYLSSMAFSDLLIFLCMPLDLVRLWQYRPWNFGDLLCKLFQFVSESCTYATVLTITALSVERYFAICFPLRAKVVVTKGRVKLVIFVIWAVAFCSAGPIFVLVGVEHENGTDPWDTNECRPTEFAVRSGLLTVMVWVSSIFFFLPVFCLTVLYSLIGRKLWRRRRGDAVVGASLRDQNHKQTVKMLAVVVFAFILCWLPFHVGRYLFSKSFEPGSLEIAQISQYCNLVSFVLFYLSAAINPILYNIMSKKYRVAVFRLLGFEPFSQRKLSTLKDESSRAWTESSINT
row,Structure (SMILES),IC50 [nM]
1,CCc1ccc(Cn2c(CCc3ccccc3)nnc2[C@@H](Cc2c[nH]c3ccccc23)NC(=O)C2CNCCN2)cc1 (mixture of isomers) [compound 84],247
2,"COC(=O)CCn1nnnc1[C@@H](Cc1c[nH]c2ccccc12)NC(=O)C(C)(C)N [Example 3 from WO 00/54729 A2, (R)—N-(1-(1-methylpropanoate-tetrazol-5-yl)-2-(1H-indol-3-yl)ethyl)-2-amino-2-methylpropanamide, reference compound]",~3000
3,"CC(C)(C)Sc1nnc([C@@H](COCc2ccccc2)NC(=O)C(C)(C)N)n1Cc1ccccc1 [Example 8 from WO 00/54729 A2, (S)—N-(1-(4-benzyl-5-(tert-butylthio)-1,2,4-triazol-3-yl)-2-(benzyloxy)ethyl)-2-amino-2-methylpropanamide, reference compound]",~20000
4,"CC(C)(C)Sc1nnc([C@@H](Cc2c[nH]c3ccccc23)NC(=O)C(C)(C)N)n1Cc1ccco1 [Example 39 from WO 00/54729 A2, (R)—N-(1-(5-(tert-butylthio)-4-(furan-2-ylmethyl)-4H-1,2,4-triazol-3-yl)-2-(1H-indol-3-yl)ethyl)-2-amino-2-methylpropanamide, reference compound]",~5000
5,"CC(C)(N)C(=O)N[C@H](COCc1ccccc1)c1nnnn1Cc1ccccc1 [Example from page 175, WO 00/54729 A2, (S)—N-(1-(1-benzyl-tetrazol-5-yl)-2-(benzyloxy)ethyl)-2-amino-2-methylpropanamide, reference compound]",~25000
6,"CC(C)(N)C(=O)N[C@H](Cc1c[nH]c2ccccc12)c1nnc(CCc2c[nH]c3ccccc23)n1CCc1ccccc1 [compound 2, (R)—N-(1-(5-(2-(1H-indol-3-yl)ethyl)-4-phenethyl-4H-1,2,4-triazol-3-yl)-2-(1H-indol-3-yl)ethyl)-2-amino-2-methylpropanamide]",81
7,"CC(C)(N)C(=O)N[C@H](Cc1c[nH]c2ccccc12)c1nnc(Cc2ccccc2)n1Cc1cccc2ccccc12 [compound 4, (R)—N-(1-(5-benzyl-4-(naphthalen-1-ylmethyl)-4H-1,2,4-triazol-3-yl)-2-(1H-indol-3-yl)ethyl)-2-amino-2-methylpropanamide]",220
8,"CC(C)(N)C(=O)N[C@H](Cc1c[nH]c2ccccc12)c1nnc(CCc2c[nH]c3ccccc23)n1Cc1cccc2ccccc12 [compound 5, (R)—N-(1-(5-(2-(1H-indol-3-yl)ethyl)-4-(naphthalen-1-ylmethyl)-4H-1,2,4-triazol-3-yl)-2-(1H-indol-3-yl)ethyl)-2-amino-2-methylpropanamide]",125
9,"COc1cccc(Cn2c(Cc3ccccc3)nnc2[C@@H](Cc2c[nH]c3ccccc23)NC(=O)C(C)(C)N)c1 [compound 7, (R)—N-(1-(4-(3-methoxybenzyl)-5-benzyl-4H-1,2,4-triazol-3-yl)-2-(1H-indol-3-yl)ethyl)-2-amino-2-methylpropanamide]",120
10,"CC(C)(N)C(=O)N[C@H](Cc1c[nH]c2ccccc12)c1nnc(CCCc2c[nH]c3ccccc23)n1Cc1cccc2ccccc12 [compound 11, (R)—N-(1-(5-(3-(1H-indol-3-yl)propyl)-4-(naphthalen-1-ylmethyl)-4H-1,2,4-triazol-3-yl)-2-(1H-indol-3-yl)ethyl)-2-amino-2-methylpropanamide]",137
11,"CC(C)(N)C(=O)N[C@H](Cc1c[nH]c2ccccc12)c1nnc(CCCc2c[nH]c3ccccc23)n1Cc1ccc(Br)cc1 [compound 14, (R)—N-(1-(5-(3-(1H-indol-3-yl)propyl)-4-(4-bromobenzyl)-4H-1,2,4-triazol-3-yl)-2-(1H-indol-3-yl)ethyl)-2-amino-2-methylpropanamide]",150
12,"CCCCCCn1c(CCc2c[nH]c3ccccc23)nnc1[C@@H](Cc1c[nH]c2ccccc12)NC(=O)C(C)(C)N [compound 15, (R)—N-(1-(5-(2-(1H-indol-3-yl)ethyl)-4-hexyl-4H-1,2,4-triazol-3-yl)-2-(1H-indol-3-yl)ethyl)-2-amino-2-methylpropanamide]",120
13,"CCCCCCn1c(CCCc2c[nH]c3ccccc23)nnc1[C@@H](Cc1c[nH]c2ccccc12)NC(=O)C(C)(C)N [compound 16, (R)—N-(1-(5-(3-(1H-indol-3-yl)propyl)-4-hexyl-4H-1,2,4-triazol-3-yl)-2-(1H-indol-3-yl)ethyl)-2-amino-2-methylpropanamide]",240
14,"COc1ccc(Cn2c(CCc3c[nH]c4ccccc34)nnc2[C@H](Cc2c[nH]c3ccccc23)NC(=O)C(C)(C)N)c(OC)c1 [compound 18, (S)—N-(1-(5-(2-(1H-indol-3-yl)ethyl)-4-(2,4-dimethoxybenzyl)-4H-1,2,4-triazol-3-yl)-2-(1H-indol-3-yl)ethyl)-2-amino-2-methylpropanamide]",83
15,"COc1cccc(Cn2c(CCc3ccccc3)nnc2[C@@H](Cc2c[nH]c3ccccc23)NC(=O)C(C)(C)N)c1 [compound 19, (R)—N-(1-(4-(3-methoxybenzyl)-5-phenethyl-4H-1,2,4-triazol-3-yl)-2-(1H-indol-3-yl)ethyl)-2-amino-2-methylpropanamide]",78
16,"COc1cc(Cn2c(CCc3c[nH]c4ccccc34)nnc2[C@@H](Cc2c[nH]c3ccccc23)NC(=O)C(C)(C)N)cc(OC)c1 [compound 21, (R)—N-(1-(5-(2-(1H-indol-3-yl)ethyl)-4-(3,5-dimethoxybenzyl)-4H-1,2,4-triazol-3-yl)-2-(1H-indol-3-yl)ethyl)-2-amino-2-methylpropanamide]",203
17,COc1ccccc1Cn1c(CCc2c[nH]c3ccccc23)nnc1[C@@H](Cc1c[nH]c2ccccc12)NC(=O)C(C)(C)N [compound 25],96
18,"CC(C)(N)C(=O)N[C@H](Cc1c[nH]c2ccccc12)c1nnc(CCc2ccccc2)n1Cc1cccc2ccccc12 [compound 27, (R)—N-(2-(1H-indol-3-yl)-1-(4-(naphthalen-1-ylmethyl)-5-phenethyl-4H-1,2,4-triazol-3-yl)ethyl)-2-amino-2-methylpropanamide]",126
19,"CC(C)(N)C(=O)N[C@H](Cc1c[nH]c2ccccc12)c1nnc(CCc2c[nH]c3ccccc23)n1Cc1ccc(Cl)c(Cl)c1 [compound 28, (R)—N-(1-(5-(2-(1H-indol-3-yl)ethyl)-4-(3,4-dichlorobenzyl)-4H-1,2,4-triazol-3-yl)-2-(1H-indol-3-yl)ethyl)-2-amino-2-methylpropanamide]",79

# Stronger by IC50, values ahead:
row,IC50 [nM],Structure (SMILES)
1,11,"O=C(N[C@H](Cc1c[nH]c2ccccc12)c1nnc(CCc2c[nH]c3ccccc23)n1Cc1ccccc1)C1CCCNC1 (mixture of isomers) [compound 55, (R)—N-(1-(5-(2-(1H-indol-3-yl)ethyl)-4-benzyl-4H-1,2,4-triazol-3-yl)-2-(1H-indol-3-yl)ethyl)piperidine-3-carboxamide]"
2,14,"CC(C)(N)C(=O)N[C@H](Cc1c[nH]c2ccccc12)c1nnc(CCCc2c[nH]c3ccccc23)n1CCc1ccccc1 [compound 3, (R)—N-(1-(5-(3-(1H-indol-3-yl)propyl)-4-phenethyl-4H-1,2,4-triazol-3-yl)-2-(1H-indol-3-yl)ethyl)-2-amino-2-methylpropanamide]"
3,18,"COc1cccc(Cn2c(CCc3c[nH]c4ccccc34)nnc2[C@@H](Cc2c[nH]c3ccccc23)NC(=O)C(C)(C)N)c1 [compound 6, (R)—N-(1-(5-(2-(1H-indol-3-yl)ethyl)-4-(3-methoxybenzyl)-4H-1,2,4-triazol-3-yl)-2-(1H-indol-3-yl)ethyl)-2-amino-2-methylpropanamide]"
4,18,"CC(C)(N)C(=O)N[C@H](Cc1c[nH]c2ccccc12)c1nnc(CCc2c[nH]c3ccccc23)n1Cc1ccccc1 [compound 8, (R)—N-(1-(5-(2-(1H-indol-3-yl)ethyl)-4-benzyl-4H-1,2,4-triazol-3-yl)-2-(1H-indol-3-yl)ethyl)-2-amino-2-methylpropanamide]"
5,32,"COc1cccc(Cn2c(CCCc3c[nH]c4ccccc34)nnc2[C@@H](Cc2c[nH]c3ccccc23)NC(=O)C(C)(C)N)c1 [compound 10, (R)—N-(1-(5-(3-(1H-indol-3-yl)propyl)-4-(3-methoxybenzyl)-4H-1,2,4-triazol-3-yl)-2-(1H-indol-3-yl)ethyl)-2-amino-2-methylpropanamide]"
6,37,"COc1ccc(Cn2c(CCCc3c[nH]c4ccccc34)nnc2[C@@H](Cc2c[nH]c3ccccc23)NC(=O)C(C)(C)N)cc1 [compound 23, (R)—N-(1-(5-(3-(1H-indol-3-yl)propyl)-4-(4-methoxybenzyl)-4H-1,2,4-triazol-3-yl)-2-(1H-indol-3-yl)ethyl)-2-amino-2-methylpropanamide]"
7,56,"COc1ccccc1Cn1c(CCc2ccccc2)nnc1[C@@H](Cc1c[nH]c2ccccc12)NC(=O)C(C)(C)N [compound 26, (R)—N-(1-(4-(2-methoxybenzyl)-5-phenethyl-4H-1,2,4-triazol-3-yl)-2-(1H-indol-3-yl)ethyl)-2-amino-2-methylpropanamide]"
8,66,"CC(C)(N)C(=O)N[C@H](Cc1c[nH]c2ccccc12)c1nnc(CCc2c[nH]c3ccccc23)n1Cc1ccc(F)cc1 [compound 29, (R)—N-(1-(5-(2-(1H-indol-3-yl)ethyl)-4-(4-fluorobenzyl)-4H-1,2,4-triazol-3-yl)-2-(1H-indol-3-yl)ethyl)-2-amino-2-methylpropanamide]"
9,10.3,"COc1ccc(Cn2c(CCc3c[nH]c4ccccc34)nnc2[C@@H](Cc2c[nH]c3ccccc23)NC(=O)C2CCCNC2)c(OC)c1 (stereo partly drawn) [compound 32, (R)—N-(1-(5-(2-(1H-indol-3-yl)ethyl)-4-(2,4-dimethoxybenzyl)-4H-1,2,4-triazol-3-yl)-2-(1H-indol-3-yl)ethyl)piperidine-3-carboxamide]"
